Measurements published in ChEMBL document CHEMBL1146106, “1-Phenyl-8-azabicyclo[3.2.1]octane ethers: a novel series of neurokinin (NK1) antagonists” (Bioorg Med Chem Lett, 2006).

Key:
Substance-P receptor = Substance-P receptor (Homo sapiens, UniProt P25103); assay: Displacement of [125I]-labeled substance P from human cloned NK1 receptor expressed in CHO cells; assay type: cell-based
Gerbil, jird [1] = assay: Inhibition of GR-73632-induced foot tapping in iv dosed gerbils after 24 hrs; assay type: functional; details: Meriones, read-out: ID50 (the source's name)
[2] = target: Voltage-gated inwardly rectifying potassium channel KCNH2 (Homo sapiens, UniProt Q12809); assay: Displacement of [35S]-labeled MK499 from cloned hERG expressed in HEK cells; assay type: cell-based, HEK293
Gerbil, jird [3] = assay: Inhibition of GR-73632-induced foot tapping in iv dosed gerbil; assay type: functional; details: Meriones, read-out: ID50 (the source's name)
Gerbil, jird [4] = assay: Inhibition of GR-73632 induced foot tapping in gerbils at 3 mg/kg, iv after 24 hrs; assay type: functional; details: Meriones
Gerbil, jird [5] = assay: Inhibition of GR-73632-induced foot tapping in gerbils at 3 mg/kg, iv; assay type: functional; details: Meriones

Chain of Voltage-gated inwardly rectifying potassium channel KCNH2 (Q12809 whole entry): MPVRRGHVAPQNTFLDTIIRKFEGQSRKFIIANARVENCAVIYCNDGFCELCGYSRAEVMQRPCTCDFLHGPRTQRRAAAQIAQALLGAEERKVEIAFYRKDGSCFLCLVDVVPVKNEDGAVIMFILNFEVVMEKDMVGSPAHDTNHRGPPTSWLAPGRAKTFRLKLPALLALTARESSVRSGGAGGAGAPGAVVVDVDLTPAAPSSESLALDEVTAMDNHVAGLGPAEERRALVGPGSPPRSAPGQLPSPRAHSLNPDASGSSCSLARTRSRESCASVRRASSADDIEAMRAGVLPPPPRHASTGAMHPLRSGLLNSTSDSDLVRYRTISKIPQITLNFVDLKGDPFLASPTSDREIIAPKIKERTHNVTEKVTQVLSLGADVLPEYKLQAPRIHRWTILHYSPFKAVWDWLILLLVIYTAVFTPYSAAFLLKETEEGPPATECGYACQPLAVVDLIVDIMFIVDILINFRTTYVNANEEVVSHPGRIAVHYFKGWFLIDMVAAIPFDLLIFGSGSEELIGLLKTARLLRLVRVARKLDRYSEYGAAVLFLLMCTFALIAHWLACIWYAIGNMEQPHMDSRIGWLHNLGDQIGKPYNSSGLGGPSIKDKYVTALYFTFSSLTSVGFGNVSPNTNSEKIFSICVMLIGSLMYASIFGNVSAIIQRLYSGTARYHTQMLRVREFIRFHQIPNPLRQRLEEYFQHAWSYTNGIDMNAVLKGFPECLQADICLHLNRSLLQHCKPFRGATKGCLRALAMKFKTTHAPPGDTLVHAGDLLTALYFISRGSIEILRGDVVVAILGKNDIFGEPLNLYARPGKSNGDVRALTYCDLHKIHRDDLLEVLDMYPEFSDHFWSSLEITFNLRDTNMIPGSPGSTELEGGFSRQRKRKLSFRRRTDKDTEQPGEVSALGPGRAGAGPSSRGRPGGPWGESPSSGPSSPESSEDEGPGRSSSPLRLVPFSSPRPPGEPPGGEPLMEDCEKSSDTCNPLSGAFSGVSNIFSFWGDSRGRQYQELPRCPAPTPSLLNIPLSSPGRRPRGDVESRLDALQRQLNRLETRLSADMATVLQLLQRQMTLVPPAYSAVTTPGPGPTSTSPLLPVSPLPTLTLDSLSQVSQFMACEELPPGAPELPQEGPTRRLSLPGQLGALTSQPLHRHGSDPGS
Chain of Substance-P receptor (P25103 whole entry): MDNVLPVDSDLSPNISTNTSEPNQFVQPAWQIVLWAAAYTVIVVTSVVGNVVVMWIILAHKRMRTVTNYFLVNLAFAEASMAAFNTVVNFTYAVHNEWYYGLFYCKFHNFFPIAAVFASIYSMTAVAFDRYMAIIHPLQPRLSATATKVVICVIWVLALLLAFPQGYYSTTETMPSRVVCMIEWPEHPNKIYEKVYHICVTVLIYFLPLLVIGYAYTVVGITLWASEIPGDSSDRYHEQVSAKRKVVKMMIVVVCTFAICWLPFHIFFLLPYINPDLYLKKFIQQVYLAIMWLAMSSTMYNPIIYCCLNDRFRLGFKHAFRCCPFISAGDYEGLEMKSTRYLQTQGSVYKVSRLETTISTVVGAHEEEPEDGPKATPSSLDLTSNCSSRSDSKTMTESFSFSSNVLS

| SMILES | IC50 (Substance-P receptor) [nM] | ED50 (Gerbil, jird [1]) [mg/kg] | Ki [2] [nM] | ED50 (Gerbil, jird [3]) [mg/kg] | inhibition in vivo at 3 mg/kg (Gerbil, jird [4]) [%] | inhibition in vivo at 3 mg/kg (Gerbil, jird [5]) [%] |
| --- | --- | --- | --- | --- | --- | --- |
| C[C@@H](OC1CCC2CCC1(c1ccccc1)N2)c1cc(C(F)(F)F)cc(C(F)(F)F)c1 (stereo partly specified) | 4.2 | – | – | – | – | – |
| C[C@@H](OC1CCC2NC1(c1ccccc1)CC2c1nnn(C)n1)c1cc(C(F)(F)F)cc(C(F)(F)F)c1 (stereo partly specified) | 0.5 | 1.1 | 1800 | 0.4 | – | – |
| O=S(=O)(c1ccccc1)C1CC2(c3ccccc3)NC1CCC2OCc1cc(C(F)(F)F)cc(C(F)(F)F)c1 (stereo unspecified) | 2.8 | – | 1300 | – | – | – |
| Cn1nnc(C2CC3(c4ccccc4)NC2CCC3OCc2cc(C(F)(F)F)cc(C(F)(F)F)c2)n1 (stereo unspecified) | 1 | 0.6 | 100 | 0.3 | – | – |
| C[C@@H](OC1CCC2NC1(c1ccccc1)CC2c1nnnn1C)c1cc(C(F)(F)F)cc(C(F)(F)F)c1 (stereo partly specified) | 1.2 | 0.8 | 2800 | 0.2 | – | – |
| C[C@@H](OC1CCC2NC1(c1ccccc1)CC2(F)c1nnn(C)n1)c1cc(C(F)(F)F)cc(C(F)(F)F)c1 (stereo partly specified) | 0.4 | – | > 5000 | – | 23 | – |
| Cn1nnc(C2(F)CC3(c4ccccc4)NC2CCC3OCc2cc(C(F)(F)F)cc(C(F)(F)F)c2)n1 (stereo unspecified) | 1.5 | – | > 10000 | – | 11 | – |
| FC(F)(F)c1cc(COC2CCC3CCC2(c2ccccc2)N3)cc(C(F)(F)F)c1 (stereo unspecified) | 3 | – | 300 | – | – | – |
| C[C@H](OC1CCC2CCC1(c1ccccc1)N2)c1cc(C(F)(F)F)cc(C(F)(F)F)c1 (stereo partly specified) | 200 | – | – | – | – | – |
| C[C@@H](OC1CCC2NC1(c1ccccc1)CC2S(=O)(=O)c1ccccc1)c1cc(C(F)(F)F)cc(C(F)(F)F)c1 (stereo partly specified) | 0.6 | – | – | – | – | 39 |
